# From ChEMBL document CHEMBL4130451, “Design and Synthesis of N-Aryl Phenoxyethoxy Pyridinones as Highly Selective and CNS Penetrant mGlu3 NAMs” (ACS Med Chem Lett, 2017)
# Calls of active or inactive are those of the source. The calls are words filed in the database; no cut-off is given here.
# Experiments:
# [1] = molecular target: Metabotropic glutamate receptor 3 (Rattus norvegicus) (UniProt P31422); assay: Negative allosteric modulation of rat mGlu3 receptor expressed in TREX cells coexpressing Galpha15 assessed as inhibition of glutamate induced-calcium mobilization by measuring minimum glutamate response preincubated for 2.3 mins followed by glutamate addition measured for 2.6 mins by Fluo-4 AM dye based fluorescence assay relative to glutamate; format: functional, cell-based
# [2] = molecular target: Metabotropic glutamate receptor 5 (Rattus norvegicus) (UniProt P31424); assay: Positive allosteric modulation of rat mGlu5 receptor expressed in HEK293A cells assessed as increase in glutamate induced-calcium mobilization by measuring maximum glutamate response preincubated for 2.3 mins followed by glutamate addition measured for 1.9 mins by Fluo-4 AM dye based fluorescence assay relative to glutamate; format: functional, cell-based
# [3] = molecular target: Metabotropic glutamate receptor 3 (Rattus norvegicus, UniProt P31422); assay: Negative allosteric modulation of rat mGlu3 receptor expressed in TREX cells coexpressing Galpha15 assessed as inhibition of glutamate induced-calcium mobilization preincubated for 2.3 mins followed by glutamate addition measured for 2.6 mins by Fluo-4 AM dye based fluorescence assay; format: functional, cell-based
# [4] = molecular target: Metabotropic glutamate receptor 5 (Rattus norvegicus, UniProt P31424); assay: Positive allosteric modulation of rat mGlu5 receptor expressed in HEK293A cells assessed as increase in glutamate induced-calcium mobilization preincubated for 2.3 mins followed by glutamate addition measured for 1.9 mins by Fluo-4 AM dye based fluorescence assay; format: functional, cell-based
# Mus musculus [5] = assay: Antidepressant activity in CD-1 mouse assessed as reduction in immobility time at 30 mg/kg administered ip 15 mins prior to test measured for 6 mins by tail suspension test; format: functional, organism-based
# Rattus norvegicus = organism: Rattus norvegicus; assay: Selectivity ratio of EC50 for positive allosteric modulation of rat mGlu5 receptor expressed in HEK293A cells to IC50 for negative allosteric modulation of rat mGlu3 receptor expressed in TREX cells coexpressing Galpha15; format: cell-based
# [6] = Ratio of drug uptake in Harlan CD-1 mouse brain at 3 mg/kg, ip to IC50 for negative allosteric modulation of rat mGlu2 receptor expressed in HEK293 cells coexpressing Galpha15; format: ADME, organism-based; conditions: in vivo
# Mus musculus [7] = assay: Antidepressant activity in CD-1 mouse assessed as reduction in immobility time up to 30 mg/kg administered ip 15 mins prior to test measured for 6 mins by tail suspension test; format: functional, organism-based
# [8] = Drug uptake in Harlan CD-1 mouse brain at 3 mg/kg, ip by LC/MS-MS analysis; format: ADME, organism-based; conditions: in vivo, read-out: Drug uptake
# [9] = molecular target: Metabotropic glutamate receptor 2 (Rattus norvegicus, UniProt P31421); assay: Negative allosteric modulation of rat mGlu2 receptor expressed in HEK293 cells coexpressing Galpha15 assessed as inhibition of glutamate induced-calcium mobilization preincubated for 2.3 mins followed by glutamate addition measured for 1.9 mins by Fluo-4 AM dye based fluorescence assay; format: functional, cell-based
# [10] = Fraction unbound in rat plasma at 5 uM after 4 hrs by equilibrium dialysis based LC/MS/MS analysis; format: ADME, cell-free
# Cytochrome P450 1A2 = Cytochrome P450 1A2 (Homo sapiens, UniProt P05177); assay: Inhibition of CYP1A2 in human liver microsomes using phenacetin as substrate after 15 mins in presence of NADPH by LC/MS/MS analysis; format: ADME
# Cytochrome P450 2D6 = Cytochrome P450 2D6 (Homo sapiens, UniProt P10635); assay: Inhibition of CYP2D6 in human liver microsomes using dextromethorphan as substrate after 15 mins in presence of NADPH by LC/MS/MS analysis; format: ADME
# [11] = Fraction unbound in human plasma at 5 uM after 4 hrs by equilibrium dialysis based LC/MS/MS analysis; format: ADME, cell-free
# [12] = Brain to plasma partition coefficient, Kp of the compound in rat; format: ADME
# [13] = Fraction unbound in rat brain homogenate at 5 uM after 6 hrs by equilibrium dialysis based LC/MS/MS analysis; format: ADME, tissue-based
# Cytochrome P450 3A4 = Cytochrome P450 3A4 (Homo sapiens, UniProt P08684); assay: Inhibition of CYP3A4 in human liver microsomes using midazolam as substrate after 15 mins in presence of NADPH by LC/MS/MS analysis; format: ADME
# Cytochrome P450 2C9 = Cytochrome P450 2C9 (Homo sapiens, UniProt P11712); assay: Inhibition of CYP2C9 in human liver microsomes using diclofenac as substrate after 15 mins in presence of NADPH by LC/MS/MS analysis; format: ADME
# [14] = Unbound brain-to-plasma concentration ratio in rat; format: ADME; conditions: read-out: K(p,uu,brain)
# Chain of Metabotropic glutamate receptor 3 (P31422 whole entry): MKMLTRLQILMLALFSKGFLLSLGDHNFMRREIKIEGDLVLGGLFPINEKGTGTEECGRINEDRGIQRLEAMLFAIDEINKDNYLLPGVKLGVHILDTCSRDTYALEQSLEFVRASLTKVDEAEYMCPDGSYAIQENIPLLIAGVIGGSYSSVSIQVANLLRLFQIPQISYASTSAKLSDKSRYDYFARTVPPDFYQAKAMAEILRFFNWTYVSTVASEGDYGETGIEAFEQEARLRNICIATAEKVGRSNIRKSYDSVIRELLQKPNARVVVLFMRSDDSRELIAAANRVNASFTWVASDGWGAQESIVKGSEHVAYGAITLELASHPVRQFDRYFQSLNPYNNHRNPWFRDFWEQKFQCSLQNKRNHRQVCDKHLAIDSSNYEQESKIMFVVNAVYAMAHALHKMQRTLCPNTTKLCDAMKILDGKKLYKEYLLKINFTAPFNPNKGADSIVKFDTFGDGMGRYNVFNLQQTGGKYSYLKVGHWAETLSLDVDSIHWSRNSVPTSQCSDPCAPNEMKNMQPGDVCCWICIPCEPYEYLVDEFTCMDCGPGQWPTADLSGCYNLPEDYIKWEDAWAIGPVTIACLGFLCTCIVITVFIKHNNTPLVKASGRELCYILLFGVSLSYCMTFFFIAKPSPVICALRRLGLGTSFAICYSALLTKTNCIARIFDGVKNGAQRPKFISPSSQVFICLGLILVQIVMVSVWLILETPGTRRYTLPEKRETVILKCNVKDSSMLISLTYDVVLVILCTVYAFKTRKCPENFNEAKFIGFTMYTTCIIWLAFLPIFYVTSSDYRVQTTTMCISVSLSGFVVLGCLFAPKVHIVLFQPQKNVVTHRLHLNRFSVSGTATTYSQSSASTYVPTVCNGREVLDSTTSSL
# Chain of Metabotropic glutamate receptor 5 (P31424 whole entry): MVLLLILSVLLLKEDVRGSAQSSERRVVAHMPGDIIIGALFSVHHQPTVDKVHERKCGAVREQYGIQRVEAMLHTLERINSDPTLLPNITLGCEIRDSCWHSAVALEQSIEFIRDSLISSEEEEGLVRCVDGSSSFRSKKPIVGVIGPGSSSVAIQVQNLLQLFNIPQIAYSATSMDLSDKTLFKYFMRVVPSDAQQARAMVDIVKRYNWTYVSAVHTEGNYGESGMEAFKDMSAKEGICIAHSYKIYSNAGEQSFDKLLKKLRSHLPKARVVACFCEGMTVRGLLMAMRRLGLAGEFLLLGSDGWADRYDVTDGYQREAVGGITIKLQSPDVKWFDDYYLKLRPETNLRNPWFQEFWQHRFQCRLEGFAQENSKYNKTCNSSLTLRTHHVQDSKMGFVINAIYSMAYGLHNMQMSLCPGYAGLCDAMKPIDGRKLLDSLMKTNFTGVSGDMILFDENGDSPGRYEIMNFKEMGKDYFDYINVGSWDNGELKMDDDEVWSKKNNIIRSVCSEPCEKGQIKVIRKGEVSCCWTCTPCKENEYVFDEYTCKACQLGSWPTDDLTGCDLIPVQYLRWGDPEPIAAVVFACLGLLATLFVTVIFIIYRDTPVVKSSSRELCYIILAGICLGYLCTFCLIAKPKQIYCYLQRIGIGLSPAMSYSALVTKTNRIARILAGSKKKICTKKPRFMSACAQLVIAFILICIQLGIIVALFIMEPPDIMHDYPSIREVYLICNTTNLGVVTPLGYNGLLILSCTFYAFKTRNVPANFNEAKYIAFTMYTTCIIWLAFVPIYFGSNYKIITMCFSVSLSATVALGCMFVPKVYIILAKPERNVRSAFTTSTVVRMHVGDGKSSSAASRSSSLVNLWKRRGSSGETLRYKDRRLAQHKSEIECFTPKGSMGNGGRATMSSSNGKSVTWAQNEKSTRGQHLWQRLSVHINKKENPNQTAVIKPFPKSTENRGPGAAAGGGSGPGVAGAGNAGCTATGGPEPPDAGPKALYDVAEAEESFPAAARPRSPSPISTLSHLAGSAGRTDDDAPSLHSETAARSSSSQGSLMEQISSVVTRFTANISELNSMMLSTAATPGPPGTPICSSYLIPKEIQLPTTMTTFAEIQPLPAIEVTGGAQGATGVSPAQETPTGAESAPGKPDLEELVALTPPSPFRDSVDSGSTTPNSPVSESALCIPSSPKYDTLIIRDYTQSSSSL
# Chain of Metabotropic glutamate receptor 5 (Rattus norvegicus) (P31424 21-1203 limits assumed): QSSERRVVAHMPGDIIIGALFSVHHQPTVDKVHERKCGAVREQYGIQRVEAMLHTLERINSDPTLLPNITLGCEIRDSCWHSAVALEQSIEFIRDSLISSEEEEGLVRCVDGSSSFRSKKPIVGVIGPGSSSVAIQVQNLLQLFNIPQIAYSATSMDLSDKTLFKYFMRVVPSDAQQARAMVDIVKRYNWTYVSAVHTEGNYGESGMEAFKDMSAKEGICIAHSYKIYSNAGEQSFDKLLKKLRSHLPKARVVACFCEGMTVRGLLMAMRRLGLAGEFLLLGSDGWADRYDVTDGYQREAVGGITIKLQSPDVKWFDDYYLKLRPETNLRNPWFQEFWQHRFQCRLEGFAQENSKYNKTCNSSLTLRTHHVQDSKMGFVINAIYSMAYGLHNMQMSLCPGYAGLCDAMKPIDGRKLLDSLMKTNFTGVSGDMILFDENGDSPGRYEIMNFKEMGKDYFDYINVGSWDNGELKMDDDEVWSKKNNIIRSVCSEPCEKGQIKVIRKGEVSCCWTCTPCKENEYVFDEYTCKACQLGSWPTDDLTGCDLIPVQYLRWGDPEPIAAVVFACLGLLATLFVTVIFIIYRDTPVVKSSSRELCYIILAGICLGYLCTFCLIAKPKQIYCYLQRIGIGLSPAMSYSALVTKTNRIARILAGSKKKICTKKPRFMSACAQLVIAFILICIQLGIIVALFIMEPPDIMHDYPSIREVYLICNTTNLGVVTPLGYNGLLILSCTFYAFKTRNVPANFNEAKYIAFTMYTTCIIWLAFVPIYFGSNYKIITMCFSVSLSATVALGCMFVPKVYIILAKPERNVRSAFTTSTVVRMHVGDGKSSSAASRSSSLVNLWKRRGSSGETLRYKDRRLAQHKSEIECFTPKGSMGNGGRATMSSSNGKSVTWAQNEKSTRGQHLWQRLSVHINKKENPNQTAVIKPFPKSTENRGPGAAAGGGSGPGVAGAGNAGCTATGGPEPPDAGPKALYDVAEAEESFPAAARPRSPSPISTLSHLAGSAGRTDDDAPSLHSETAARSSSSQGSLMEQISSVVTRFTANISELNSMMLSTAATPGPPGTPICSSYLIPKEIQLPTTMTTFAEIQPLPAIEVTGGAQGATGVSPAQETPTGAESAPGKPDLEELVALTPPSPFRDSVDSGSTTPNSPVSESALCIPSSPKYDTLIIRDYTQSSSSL
# Chain of Metabotropic glutamate receptor 3 (Rattus norvegicus) (P31422 23-879 limits assumed): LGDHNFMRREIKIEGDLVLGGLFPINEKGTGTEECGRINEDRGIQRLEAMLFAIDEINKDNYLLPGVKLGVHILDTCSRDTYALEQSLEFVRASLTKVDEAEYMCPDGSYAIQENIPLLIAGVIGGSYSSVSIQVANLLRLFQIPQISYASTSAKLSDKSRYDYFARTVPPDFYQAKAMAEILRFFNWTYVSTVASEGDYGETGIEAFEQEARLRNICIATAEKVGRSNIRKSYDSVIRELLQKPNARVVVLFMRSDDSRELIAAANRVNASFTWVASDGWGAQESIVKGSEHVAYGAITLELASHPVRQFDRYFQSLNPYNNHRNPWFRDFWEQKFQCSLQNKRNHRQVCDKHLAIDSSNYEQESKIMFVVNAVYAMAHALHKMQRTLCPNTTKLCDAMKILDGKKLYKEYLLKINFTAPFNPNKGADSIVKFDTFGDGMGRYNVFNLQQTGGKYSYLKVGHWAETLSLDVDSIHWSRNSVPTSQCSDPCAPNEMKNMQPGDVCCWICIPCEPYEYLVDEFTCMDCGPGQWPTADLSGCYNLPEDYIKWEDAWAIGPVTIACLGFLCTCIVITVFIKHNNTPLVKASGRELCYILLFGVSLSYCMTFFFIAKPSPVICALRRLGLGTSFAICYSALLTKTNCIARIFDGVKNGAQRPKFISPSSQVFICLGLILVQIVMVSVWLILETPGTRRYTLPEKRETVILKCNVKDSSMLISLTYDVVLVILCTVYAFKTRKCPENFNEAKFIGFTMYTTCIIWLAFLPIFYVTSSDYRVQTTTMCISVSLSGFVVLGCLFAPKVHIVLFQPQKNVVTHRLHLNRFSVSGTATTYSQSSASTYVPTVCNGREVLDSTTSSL
# Chain of Metabotropic glutamate receptor 2 (P31421 whole entry, looked up): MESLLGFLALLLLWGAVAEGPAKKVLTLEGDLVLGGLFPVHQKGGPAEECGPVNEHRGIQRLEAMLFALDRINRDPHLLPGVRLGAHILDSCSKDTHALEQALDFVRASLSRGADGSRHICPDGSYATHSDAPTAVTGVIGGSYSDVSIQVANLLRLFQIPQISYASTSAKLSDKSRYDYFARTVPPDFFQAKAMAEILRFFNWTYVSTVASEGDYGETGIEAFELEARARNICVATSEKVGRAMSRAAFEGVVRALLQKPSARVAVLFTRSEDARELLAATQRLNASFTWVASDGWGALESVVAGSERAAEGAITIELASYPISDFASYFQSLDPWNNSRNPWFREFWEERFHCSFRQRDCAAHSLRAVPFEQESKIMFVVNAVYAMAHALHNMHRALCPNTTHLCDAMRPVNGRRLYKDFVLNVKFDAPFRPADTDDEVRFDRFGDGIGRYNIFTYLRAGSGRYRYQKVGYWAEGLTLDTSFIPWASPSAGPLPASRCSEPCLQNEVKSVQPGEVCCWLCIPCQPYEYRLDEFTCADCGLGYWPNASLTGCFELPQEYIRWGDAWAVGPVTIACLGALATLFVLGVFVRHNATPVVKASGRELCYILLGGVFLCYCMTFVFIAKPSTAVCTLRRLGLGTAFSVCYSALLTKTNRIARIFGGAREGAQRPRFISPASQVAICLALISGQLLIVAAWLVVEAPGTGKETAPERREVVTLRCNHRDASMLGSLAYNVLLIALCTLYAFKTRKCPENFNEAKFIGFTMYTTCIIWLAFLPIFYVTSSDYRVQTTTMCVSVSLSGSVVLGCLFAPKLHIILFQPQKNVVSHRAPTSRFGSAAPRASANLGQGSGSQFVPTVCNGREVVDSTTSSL
SMILES,Emin [1],Emax [2],IC50 [3],EC50 [4],other results
O=c1nc(OCCOc2ccccc2)ccn1-c1cccc(F)c1,15.5%,77%,> 10000 nM,–,–
O=c1cc(OCCOc2ccccc2)ccn1-c1ccc(F)c(F)c1,3.53%,91%,180 nM,340 nM,–
O=c1cc(OCCOc2ncccc2Cl)ccn1-c1ccc(F)cc1,3.62%,94%,450 nM,–,–
O=c1cc(OCCOc2ccccc2)ccn1-c1cccc(F)c1,3.45%,88%,390 nM,1900 nM,–
O=c1cc(OCCOc2cccc(F)c2)ccn1-c1ccc(F)cc1,3.56%,93%,350 nM,1500 nM,–
O=c1nc(OCCOc2ccccc2)ccn1-c1ccc(F)c(F)c1,3.77%,83%,1020 nM,–,–
CNC1(c2ccccc2Cl)CCCCC1=O (stereo not drawn),–,–,–,–,Activity (Mus musculus [5]): Active
O=c1cc(OCCOc2ccccc2)ccn1-c1ccc(F)cc1,2.69%,97%,930 nM,560 nM,–
N#Cc1cccc(-n2ccc(OCCOc3ccccc3)cc2=O)c1,3.63%,87%,340 nM,–,Selectivity ratio (Rattus norvegicus): 18
Cn1ccc(COc2cnc(C(N)=O)cc2-c2ccc(F)cc2)n1,–,–,–,–,Ratio [6]: 180; Activity (Mus musculus [7]): inactive; concentration [8]: 14 µM
O=c1cc(OCCOc2cc(Cl)ccn2)ccn1-c1ccc(F)cc1,3.77%,82%,1450 nM,–,–
O=c1nc(OCCOc2ccccc2)ccn1-c1ccc(F)cc1,3.94%,97%,290 nM,–,"IC50 [9]: > 30000 nM; fraction unbound at 4 h, 5 µM [10]: 0.16"
N#Cc1cc(F)cc(-n2ccc(OCCOc3ccccc3)cc2=O)c1,3.39%,27%,270 nM,–,–
CC(COc1ccn(-c2ccc(F)cc2)c(=O)c1)Oc1ccccc1 (stereo not drawn),3.57%,–,1230 nM,> 30000 nM,"IC50 (Cytochrome P450 1A2): > 30000 nM; IC50 (Cytochrome P450 2D6): > 30000 nM; fraction unbound at 4 h, 5 µM [11]: 0.1; Kp [12]: 1.7; fraction unbound at 6 h, 5 µM [13]: 0.05; IC50 (Cytochrome P450 3A4): > 30000 nM; fraction unbound at 4 h, 5 µM [10]: 0.04; IC50 (Cytochrome P450 2C9): > 30000 nM; Kp uu [14]: 1.3"
C[C@H](COc1ccn(-c2ccc(F)cc2)c(=O)c1)Oc1ccccc1,–,–,> 30000 nM,–,IC50 [9]: > 30000 nM
